Experimental data from BigSolDB 2.1.

CC(=O)c1c(C)cc(C(C)(C)C)cc1C
solubility (mole fraction)
Details | in acetone | in acetonitrile | in cyclohexane | in ethanol | in ethyl acetate | in isopropanol | in methanol | in n-octanol
273.15 K | 0.308 | 0.188 | 0.279 | 0.0701 | 0.376 | 0.073 | 0.0607 | 0.123
278.15 K | 0.346 | 0.235 | 0.337 | 0.095 | 0.427 | 0.101 | 0.0828 | 0.161
283.15 K | 0.393 | 0.291 | 0.407 | 0.14 | 0.479 | 0.146 | 0.116 | 0.205
288.15 K | 0.445 | 0.355 | 0.48 | 0.196 | 0.539 | 0.206 | 0.16 | 0.27
293.15 K | 0.505 | 0.428 | 0.56 | 0.27 | 0.603 | 0.288 | 0.228 | 0.354
298.15 K | 0.568 | 0.521 | 0.645 | 0.37 | 0.673 | 0.391 | 0.339 | 0.46
303.15 K | 0.64 | 0.623 | 0.735 | 0.52 | 0.741 | 0.542 | 0.478 | 0.6
308.15 K | 0.728 | 0.739 | 0.832 | 0.705 | 0.817 | 0.729 | 0.667 | 0.761
